# Several values for one entry are separate records, joined by “and”; a condition that tells them apart may be missing. Identical values can stand only once. Inconclusive results and toxic doses are left out.
# Test system: L1210 leukemia ip in BDF1 mice, survival T/C
# Assay: NCI In Vivo Anticancer Drug Screen. Data for tumor model L1210 Leukemia (intraperitoneal) in B6D2F1 (BDF1) mice
# Conditions: endpoint: mean survival time, higher = longer survival
# How it was run: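 Transplantable tumor model; survival measured in treated vs vehicle control mice. Value = treated/control.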
# [1] = dose: 12.5 mg/kg/injection, schedule: Q01DX009 (ip), vehicle: saline
# [2] = dose: 25.0 mg/kg/injection, schedule: Q01DX009 (ip), vehicle: saline
# [3] = dose: 100.0 mg/kg/injection, schedule: Q04DX003 (ip), vehicle: Klucel (hydroxypropylcellulose) (HPC)
# [4] = dose: 100.0 mg/kg/injection, schedule: Q04DX003 (ip), vehicle: saline with Tween-80
# [5] = dose: 200.0 mg/kg/injection, schedule: Q04DX003 (ip), vehicle: saline with Tween-80
# [6] = dose: 100.0 mg/kg/injection, schedule: Q01DX001 (ip), vehicle: saline
# [7] = dose: 200.0 mg/kg/injection, schedule: Q01DX001 (ip), vehicle: saline
# [8] = dose: 400.0 mg/kg/injection, schedule: Q01DX001 (ip), vehicle: saline
# [9] = dose: 100.0 mg/kg/injection, schedule: Q01DX009 (ip), vehicle: Klucel (hydroxypropylcellulose) (HPC)
# [10] = dose: 200.0 mg/kg/injection, schedule: Q01DX009 (ip), vehicle: Klucel (hydroxypropylcellulose) (HPC)
# [11] = dose: 200.0 mg/kg/injection, schedule: Q04DX003 (ip), vehicle: Klucel (hydroxypropylcellulose) (HPC)
# [12] = dose: 400.0 mg/kg/injection, schedule: Q04DX003 (ip), vehicle: Klucel (hydroxypropylcellulose) (HPC)
# [13] = dose: 100.0 mg/kg/injection, schedule: Q04DX002 (ip), vehicle: Klucel (hydroxypropylcellulose) (HPC)
# [14] = dose: 200.0 mg/kg/injection, schedule: Q04DX002 (ip), vehicle: Klucel (hydroxypropylcellulose) (HPC)
smiles,measurement,setting,value
CC/C(C)=N/NCCO,T/C,"dose: 12.5 mg/kg/injection, schedule: Q01DX001 (ip), vehicle: saline",114 % of control
same,T/C,[1],93 % of control
same,T/C,"dose: 25.0 mg/kg/injection, schedule: Q01DX001 (ip), vehicle: saline",101 % of control
same,T/C,[2],97 % of control
same,T/C,"dose: 50.0 mg/kg/injection, schedule: Q01DX001 (ip), vehicle: saline",103 % of control and 104 % of control
O=S(=O)(c1ccc(NC(=S)NC(Cc2ccccc2)c2ccccc2)cc1)N1CCCCC1 (configuration not stated),T/C,"dose: 100.0 mg/kg/injection, schedule: Q04DX003 (ip), vehicle: carboxymethylcellulose (CMC)",91 % of control
same,T/C,"dose: 200.0 mg/kg/injection, schedule: Q04DX003 (ip), vehicle: carboxymethylcellulose (CMC)",89 % of control
same,T/C,"dose: 400.0 mg/kg/injection, schedule: Q04DX003 (ip), vehicle: carboxymethylcellulose (CMC)",93 % of control
NC(=O)C(=O)NCCCN1CC1,T/C,"dose: 12.5 mg/kg/injection, schedule: Q04DX003 (ip), vehicle: Klucel (hydroxypropylcellulose) (HPC)",102 % of control
same,T/C,"dose: 25.0 mg/kg/injection, schedule: Q04DX003 (ip), vehicle: Klucel (hydroxypropylcellulose) (HPC)",98 % of control
same,T/C,"dose: 50.0 mg/kg/injection, schedule: Q04DX003 (ip), vehicle: Klucel (hydroxypropylcellulose) (HPC)",106 % of control
same,T/C,[3],118 % of control
Nc1nc(C=O)c(CCc2ccccc2)c(=O)[nH]1,T/C,[4],100 % of control
same,T/C,[5],97 % of control
COc1ccc(C(C)=O)c(OC)c1,T/C,[6],98 % of control
same,T/C,"dose: 100.0 mg/kg/injection, schedule: Q01DX009 (ip), vehicle: saline",112 % of control
same,T/C,[7],98 % of control
same,T/C,"dose: 200.0 mg/kg/injection, schedule: Q01DX009 (ip), vehicle: saline",94 % of control
same,T/C,[8],98 % of control
same,T/C,"dose: 400.0 mg/kg/injection, schedule: Q01DX009 (ip), vehicle: saline",102 % of control
O=C(c1ccccc1)C(Br)C(c1ccccc1)c1ccccc1 (configuration not stated),T/C,[9],94 % of control
same,T/C,[3],104 % of control
same,T/C,[10],94 % of control
same,T/C,[11],104 % of control
same,T/C,"dose: 400.0 mg/kg/injection, schedule: Q01DX009 (ip), vehicle: Klucel (hydroxypropylcellulose) (HPC)",100 % of control
same,T/C,[12],98 % of control
O=c1c2[nH]cnc2nnn1CCc1ccccc1,T/C,"dose: 100.0 mg/kg/injection, schedule: Q01DX001 (ip), vehicle: other",94 % of control
same,T/C,"dose: 200.0 mg/kg/injection, schedule: Q01DX001 (ip), vehicle: other",93 % of control
same,T/C,"dose: 400.0 mg/kg/injection, schedule: Q01DX001 (ip), vehicle: other",91 % of control
CC1CN1P(=O)(N1CCCCC1)N1CC1C (configuration not stated),T/C,"dose: 11.0 mg/kg/injection, schedule: Q01DX Z (ip), vehicle: carboxymethylcellulose (CMC)",97 % of control
same,T/C,"dose: 11.0 mg/kg/injection, schedule: Q01DX Z (ip), vehicle: saline",109 % of control
same,T/C,"dose: 13.0 mg/kg/injection, schedule: Q01DX Z (ip), vehicle: carboxymethylcellulose (CMC)",102 % of control
same,T/C,"dose: 17.0 mg/kg/injection, schedule: Q01DX Z (ip), vehicle: carboxymethylcellulose (CMC)",119 % of control
same,T/C,"dose: 17.0 mg/kg/injection, schedule: Q01DX Z (ip), vehicle: saline",116 % of control
same,T/C,"dose: 20.0 mg/kg/injection, schedule: Q01DX Z (ip), vehicle: carboxymethylcellulose (CMC)",102 % of control
same,T/C,"dose: 25.0 mg/kg/injection, schedule: Q01DX Z (ip), vehicle: carboxymethylcellulose (CMC)",104 % of control and 116 % of control
same,T/C,"dose: 25.0 mg/kg/injection, schedule: Q01DX Z (ip), vehicle: saline",104 % of control
same,T/C,"dose: 30.0 mg/kg/injection, schedule: Q01DX Z (ip), vehicle: carboxymethylcellulose (CMC)",105 % of control
same,T/C,"dose: 38.0 mg/kg/injection, schedule: Q01DX Z (ip), vehicle: carboxymethylcellulose (CMC)",115 % of control and 116 % of control
same,T/C,"dose: 45.0 mg/kg/injection, schedule: Q01DX Z (ip), vehicle: carboxymethylcellulose (CMC)",100 % of control and 115 % of control
same,T/C,"dose: 57.0 mg/kg/injection, schedule: Q01DX Z (ip), vehicle: saline",118 % of control
same,T/C,"dose: 85.0 mg/kg/injection, schedule: Q01DX Z (ip), vehicle: carboxymethylcellulose (CMC)",109 % of control
same,T/C,"dose: 86.0 mg/kg/injection, schedule: Q01DX Z (ip), vehicle: saline",102 % of control and 113 % of control
Clc1ccc(/C=N/N2CCN(/N=C/c3ccc(Cl)c(Cl)c3)CC2)cc1Cl,T/C,[6],92 % of control
same,T/C,[7],92 % of control
same,T/C,[8],92 % of control
O=C(c1cccc([N+](=O)[O-])c1)c1sc2ccccc2c1O,T/C,"dose: 50.0 mg/kg/injection, schedule: Q04DX002 (ip), vehicle: Klucel (hydroxypropylcellulose) (HPC)",90 % of control
same,T/C,[13],93 % of control
same,T/C,[14],88 % of control
Cc1ccc(NC(=O)COc2ccc(Cl)cc2Cl)c(C)c1,T/C,"dose: 100.0 mg/kg/injection, schedule: Q01DX009 (ip), vehicle: saline with Tween-80",104 % of control
same,T/C,[4],89 % of control
same,T/C,"dose: 200.0 mg/kg/injection, schedule: Q01DX009 (ip), vehicle: saline with Tween-80",101 % of control
same,T/C,[5],91 % of control
same,T/C,"dose: 400.0 mg/kg/injection, schedule: Q01DX009 (ip), vehicle: saline with Tween-80",96 % of control
same,T/C,"dose: 400.0 mg/kg/injection, schedule: Q04DX003 (ip), vehicle: saline with Tween-80",91 % of control
O=NN(CCCl)C(=O)NC(CCC(=O)O)C(=O)O (configuration not stated),T/C,"dose: 13.0 mg/kg/injection, schedule: Q01DX001 (ip), vehicle: saline with Tween-80",123 % of control
same,T/C,"dose: 67.0 mg/kg/injection, schedule: Q01DX001 (ip), vehicle: saline with Tween-80",200 % of control
same,T/C,"dose: 100.0 mg/kg/injection, schedule: Q01DX001 (ip), vehicle: saline with Tween-80",261 % of control
same,T/C,"dose: 150.0 mg/kg/injection, schedule: Q01DX001 (ip), vehicle: saline with Tween-80",331 % of control
same,T/C,"dose: 224.0 mg/kg/injection, schedule: Q01DX001 (ip), vehicle: saline with Tween-80",331 % of control
same,T/C,"dose: 335.0 mg/kg/injection, schedule: Q01DX001 (ip), vehicle: saline with Tween-80",192 % of control
Cc1ccccc1SCC(N)=O,T/C,[3],91 % of control
same,T/C,[11],98 % of control
same,T/C,[12],107 % of control
O=C(O)/C(=C\c1ccc([N+](=O)[O-])cc1)c1cccc(Cl)c1,T/C,"dose: 100.0 mg/kg/injection, schedule: Q01DX001 (ip), vehicle: Klucel (hydroxypropylcellulose) (HPC)",108 % of control
same,T/C,[9],96 % of control and 97 % of control
same,T/C,[13],94 % of control and 89 % of control
same,T/C,[3],106 % of control
same,T/C,"dose: 200.0 mg/kg/injection, schedule: Q01DX001 (ip), vehicle: Klucel (hydroxypropylcellulose) (HPC)",103 % of control
same,T/C,[10],97 % of control and 102 % of control
same,T/C,[14],101 % of control and 102 % of control
same,T/C,[11],97 % of control
same,T/C,"dose: 400.0 mg/kg/injection, schedule: Q01DX001 (ip), vehicle: Klucel (hydroxypropylcellulose) (HPC)",98 % of control
same,T/C,"dose: 400.0 mg/kg/injection, schedule: Q04DX002 (ip), vehicle: Klucel (hydroxypropylcellulose) (HPC)",99 % of control
same,T/C,[12],99 % of control
O=C(Cc1c[nH]c2ccccc12)N/N=C\c1c[nH]c2ccccc12,T/C,[7],97 % of control
same,T/C,[8],92 % of control
CC(C)C1C(C(N)=O)C(=O)OC1(C)C (configuration not stated),T/C,[6],96 % of control
same,T/C,[7],98 % of control
same,T/C,[8],96 % of control
N#Cc1ccc(-c2ccc(N)cc2)cc1,T/C,"dose: 50.0 mg/kg/injection, schedule: Q01DX001 (ip), vehicle: carboxymethylcellulose (CMC)",88 % of control
same,T/C,"dose: 100.0 mg/kg/injection, schedule: Q01DX001 (ip), vehicle: carboxymethylcellulose (CMC)",90 % of control
same,T/C,"dose: 200.0 mg/kg/injection, schedule: Q01DX001 (ip), vehicle: carboxymethylcellulose (CMC)",88 % of control
same,T/C,"dose: 400.0 mg/kg/injection, schedule: Q01DX001 (ip), vehicle: carboxymethylcellulose (CMC)",90 % of control
O=C(O)c1cc(I)c(I)c(I)c1,T/C,[4],97 % of control
same,T/C,[5],101 % of control
CC(CN1CCN(CCOCCO)CC1)CN1c2ccccc2Sc2ccccc21 (configuration not stated),T/C,"dose: 3.12 mg/kg/injection, schedule: Q01DX009 (ip), vehicle: saline",103 % of control
same,T/C,"dose: 6.25 mg/kg/injection, schedule: Q01DX009 (ip), vehicle: saline",97 % of control
same,T/C,[1],108 % of control
same,T/C,[2],113 % of control
same,T/C,"dose: 25.0 mg/kg/injection, schedule: Q04DX003 (ip), vehicle: saline",96 % of control
same,T/C,"dose: 50.0 mg/kg/injection, schedule: Q04DX003 (ip), vehicle: saline",102 % of control

# Source: PubChem BioAssay AID248 (DTP/NCI, 2004)
